Test results reported in US10702592B2, “Peptides and combination of peptides for use in immunotherapy against NHL and other cancers” (Immatics Biotechnologies GmbH, priority 2016, dated 2020).

What was measured:
CD8+ T cells = test: In vitro T-cell priming immunogenicity assay (aAPC with pMHC and anti-CD28, multimer staining); type: cell-based, human; conditions: for Wells positive [%]: HLA-A*02 restricted peptides, percentage of positive wells and donors (among evaluable); for in vitro immunogenicity, wells: CD8+ T cells of healthy HLA-A*02 donors, three stimulation cycles, multimer readout
Description: In order to obtain information regarding the immunogenicity of the TUMAPs of the present invention, the inventors performed investigations using an in vitro T-cell priming assay based on repeated stimulations of CD8+ T cells with artificial antigen presenting cells (aAPCs) loaded with peptide/MHC complexes and anti-CD28 antibody.
In order to perform in vitro stimulations by artificial antigen presenting cells loaded with peptide-MHC complex (pMHC) and anti-CD28 antibody, the inventors first isolated CD8+ T cells from fresh HLA-A*02 leukapheresis products via positive selection using CD8 microbeads (Miltenyi Biotec, Bergisch-Gladbach, Germany) of healthy donors obtained from the University clinics Mannheim, Germany, after informed consent.
PBMCs and isolated CD8+ lymphocytes were incubated in T-cell medium (TCM) until use consisting of RPMI-Glutamax (Invitrogen, Karlsruhe, Germany) supplemented with 10% heat inactivated human AB serum (PAN-Biotech, Aidenbach, Germany), 100 U/ml Penicillin/100 μg/ml Streptomycin (Cambrex, Cologne, Germany), 1 mM sodium pyruvate (CC Pro, Oberdorla, Germany), 20 μg/ml Gentamycin (Cambrex). 2.5 ng/ml IL-7 (PromoCell, Heidelberg, Germany) and 10 U/ml IL-2 (Novartis Pharma, Nurnberg, Germany) were also added to the TCM at this step.
Generation of pMHC/anti-CD28 coated beads, T-cell stimulations and readout was performed in a highly defined in vitro system using four different pMHC molecules per stimulation condition and 8 different pMHC molecules per readout condition.
The purified co-stimulatory mouse IgG2a anti human CD28 Ab 9.3 (Jung et al., 1987) was chemically biotinylated using Sulfo-N-hydroxysuccinimidobiotin as recommended by the manufacturer (Perbio, Bonn, Germany). Beads used were 5.6 μm diameter streptavidin coated polystyrene particles (Bangs Laboratories, Illinois, USA).
800.000 beads/200 μl were coated in 96-well plates in the presence of 4×12.5 ng different biotin-pMHC, washed and 600 ng biotin anti-CD28 were added subsequently in a volume of 200 μl. Stimulations were initiated in 96-well plates by co-incubating 1×10^6 CD8+ T cells with 2×10^5 washed coated beads in 200 μl TCM supplemented with 5 ng/ml IL-12 (PromoCell) for 3 days at 37° C. Half of the medium was then exchanged by fresh TCM supplemented with 80 U/ml IL-2 and incubating was continued for 4 days at 37° C. This stimulation cycle was performed for a total of three times. For the pMHC multimer readout using 8 different pMHC molecules per condition, a two-dimensional combinatorial coding approach was used as previously described (Andersen et al., 2012) with minor modifications encompassing coupling to 5 different fluorochromes. Finally, multimeric analyses were performed by staining the cells with Live/dead near IR dye (Invitrogen, Karlsruhe, Germany), CD8-FITC antibody clone SK1 (BD, Heidelberg, Germany) and fluorescent pMHC multimers. For analysis, a BD LSRII SORP cytometer equipped with appropriate lasers and filters was used. Peptide specific cells were calculated as percentage of total CD8+ cells. Evaluation of multimeric analysis was done using the FlowJo software (Tree Star, Oregon, USA). In vitro priming of specific multimer+CD8+ lymphocytes was detected by comparing to negative control stimulations.

HLA-A*02:01 = HLA-A*02:01 (Homo sapiens, UniProt P04439, D140Y/D185E/D98H/E176V/E277Q/G131W/G231S/I119V/I121R/I166T/I218V/L300P/L318F/N151K/N90K/P208A/P217A/Q86G/Q94H/R138H/R169H/T345S); test: MHC binding assay (UV-ligand exchange, beta2m ELISA); conditions: binding to HLA-A*02:01, UV-ligand exchange
Outline: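 Peptide–MHC complexes formed by UV-ligand exchange, cleaving a UV-sensitive peptide so the test peptide can bind. Exchange yield measured by ELISA: complexes captured on streptavidin-coated wells, diluted 100-fold, detected with HRP anti-β2m (1 h, 37 °C) and TMB at 450 nm, against refolded HLA-A*02:01/MLA-001 standards (15-500 ng/ml).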

| Substance | Wells positive [%] (CD8+ T cells) | Peptide exchange (MHC class I binding score, peptide exchange yield) (HLA-A*02:01) | in vitro immunogenicity, wells (CD8+ T cells) |
| --- | --- | --- | --- |
| 1 (LLSGQLPTI; listed as Homo sapiens) [compound 1] | “+++” (50% - 69% = +++) | “+++” (≥50 = +++) |  |
| 2 (LLSEETPSA; listed as Homo sapiens) [compound 2] | “+” (<20% = +) | “+++” (≥50 = +++) |  |
| 3 (LTIDTQYYL; listed as Homo sapiens) [compound 3] | “+” (<20% = +) | “+++” (≥50 = +++) |  |
| 5 (VLQGLTFTL; listed as Homo sapiens) [compound 5] | “+++” (50% - 69% = +++) | “+++” (≥50 = +++) |  |
| 7 (NLLGMIFSM; listed as Homo sapiens) [compound 7] | “++++” (≥70% = ++++) | “++++” (≥75% = ++++) |  |
| 8 (ALYAVIEKA; listed as Homo sapiens) [compound 8] | “+” (<20% = +) | “+++” (≥50 = +++) |  |
| 9 (FLLDLDPLL; listed as Homo sapiens) [compound 9] | “++” (20% - 49% = ++) | “+++” (≥50 = +++) |  |
| 12 (GLLLLVPLL; listed as Homo sapiens) [compound 12] | “+++” (50% - 69% = +++) | “+++” (≥50 = +++) |  |
| 13 (HLVPASWKL; listed as Homo sapiens) [compound 13] | “+++” (50% - 69% = +++) | “+++” (≥50 = +++) |  |
| 17 (VIIPLLSSV; listed as Homo sapiens) [compound 17] | “++” (20% - 49% = ++) | “+++” (≥50 = +++) |  |
| 19 (VLEAILPLV; listed as Homo sapiens) [compound 19] | “+” (<20% = +) | “++++” (≥75% = ++++) |  |
| 21 (ALFKEAYSL; listed as Homo sapiens) [compound 21] | “+” (<20% = +) | “+++” (≥50 = +++) |  |
| 22 (ALKKHLTSV; listed as Homo sapiens) [compound 22] | “++++” (≥70% = ++++) | “+++” (≥50 = +++) |  |
| 24 (AVLGFSFRL; listed as Homo sapiens) [compound 24] | “++++” (≥70% = ++++) | “+++” (≥50 = +++) |  |
| 25 (FLDTSNQHLL; listed as Homo sapiens) [compound 25] | “+” (<20% = +) | “+++” (≥50 = +++) |  |
| 26 (FLGSFIDHV; listed as Homo sapiens) [compound 26] | “+” (<20% = +) | “+++” (≥50 = +++) |  |
| 27 (FLNQESFDL; listed as Homo sapiens) [compound 27] | “+” (<20% = +) | “+++” (≥50 = +++) |  |
| 28 (FLSNANPSL; listed as Homo sapiens) [compound 28] | “++++” (≥70% = ++++) | “+++” (≥50 = +++) |  |
| 29 (ILSDVTQGL; listed as Homo sapiens) [compound 29] | “+” (<20% = +) | “+++” (≥50 = +++) |  |

| Substance | Wells positive [%] (CD8+ T cells) | Peptide exchange (MHC class I binding score, peptide exchange yield) (HLA-A*02:01) | in vitro immunogenicity, wells (CD8+ T cells) |
| --- | --- | --- | --- |
| 30 (ILSTLDVEL; listed as Homo sapiens) [compound 30] | “++” (20% - 49% = ++) | “+++” (≥50 = +++) |  |
| 33 (LLANIVPIAMLV; listed as Homo sapiens) [compound 33] | “+” (<20% = +) | “++++” (≥75% = ++++) |  |
| 35 (SLSSERYYL; listed as Homo sapiens) [compound 35] | “++++” (≥70% = ++++) | “+++” (≥50 = +++) |  |
| 36 (VILDIPLLFET; listed as Homo sapiens) [compound 36] | “++” (20% - 49% = ++) | “+++” (≥50 = +++) |  |
| 37 (VLGNALEGV; listed as Homo sapiens) [compound 37] | “+” (<20% = +) | “+++” (≥50 = +++) |  |
| 40 (FLNSVIVDL; listed as Homo sapiens) [compound 40] | “+++” (50% - 69% = +++) | “++++” (≥75% = ++++) |  |
| 41 (ILASIFETV; listed as Homo sapiens) [compound 41] | “+++” (50% - 69% = +++) | “++++” (≥75% = ++++) |  |
| 42 (YLQDLVERA; listed as Homo sapiens) [compound 42] | “+++” (50% - 69% = +++) | “++++” (≥75% = ++++) |  |
| 43 (ALLEGVKNV; listed as Homo sapiens) [compound 43] | “++” (20% - 49% = ++) | “+++” (≥50 = +++) |  |
| 319 (SLYKGLLSV; listed as Homo sapiens) [compound 319] |  |  | ++ (20% - 49% = ++) |
| 320 (LLWGNLPEI; listed as Homo sapiens) [compound 320] |  |  | ++ (20% - 49% = ++) |
| 321 (KLLAVIHEL; listed as Homo sapiens) [compound 321] |  |  | ++ (20% - 49% = ++) |
| 322 (TLTNIIHNL; listed as Homo sapiens) [compound 322] |  |  | ++ (20% - 49% = ++) |
| 323 (ILVDWLVQV; listed as Homo sapiens) [compound 323] |  |  | ++ (20% - 49% = ++) |
| 324 (LLYDAVHIV; listed as Homo sapiens) [compound 324] |  |  | ++ (20% - 49% = ++) |
| 325 (FLFVDPELV; listed as Homo sapiens) [compound 325] |  |  | +++ (50% - 69% = +++) |
| 326 (KLTDVGIATL; listed as Homo sapiens) [compound 326] |  |  | ++++ (≥70% = ++++) |
| 327 (MLFGHPLLVSV; listed as Homo sapiens) [compound 327] |  |  | ++ (20% - 49% = ++) |
| 328 (ILFPDIIARA; listed as Homo sapiens) [compound 328] |  |  | ++++ (≥70% = ++++) |
